Experimental data from patent US20250326792A1, “A FORMULATION FOR TREATMENT OF PIGMENTARY DISORDERS” (priority 2022, published 2025).

Tests used:
B16F10 cells = assay: Melanin content assay in B16F10 cells; format: cell-based; conditions: B16F10 CELLS; 100 μM
Description: (§1) Culture and maintenance of cell lines: B16F10 cells were cultured in RPMI containing 10% fetal bovine serum, 100 units per millilitre (U/mL) penicillin, 0.1 mg/mL streptomycin, and 0.25 microgram per millilitre (μg/mL) amphotericin B at 37 degrees Celsius in a humidified 95% air/5% CO2 incubator. Drug treatment was done 24 hours after seeding. Cells were harvested 48 hours later and melanin content and tyrosinase activity determined in triplicate. NHEM cells were cultured in DMEM containing 10% fetal bovine serum, 100 units per milliliter (U/mL) penicillin, 0.1 mg/mL streptomycin, and 0.25 microgram per millilitre (μg/mL) amphotericin B at 37 degrees Celsius in a humidified 95% air/5% CO2 incubator. Drug treatment was done 24 hours after seeding. Cells were harvested 48 hours later and melanin content and tyrosinase activity determined in triplicate.
(§2) IS103 was dissolved in water for injection or DMSO to prepare stock solution of about 50 mg/ml. The stock solution was used for preparation of subsequent dilutions in solvent to achieve working dilutions for treatment ranging 0.1 μg/ml to 1000 μg/ml.
Cells were seeded in a 6-well plate (2×10^4 cells/well) and incubated overnight to allow the cells to adhere. After treating with various test samples for 4 or 5 days, cells were washed with phosphate-buffered saline (PBS), trypsinized, counted, and then lysed in 1 N NaOH at 100° C. for about 1 hour. The melanin content in each sample was calculated by comparison of absorbance at 400 nm of unknown samples with a standard curve obtained using synthetic melanin. […] B16F10 and NHEM cells were treated with different concentrations of IS103 ranging from 0.1 to 1000 μg/ml and analysed melanin contents in cells. […] To assess the toxicity of the IS103 peptide, cell viability was analyzed by MTT assay.

NHEM cells = assay: Melanin content assay in NHEM cells; format: cell-based, Human; conditions: NHEM CELLS
Description: as §1, §2
Cells were seeded in a 6-well plate (2×10^4 cells/well) and incubated overnight to allow the cells to adhere. After treating with various test samples for 4 or 5 days, cells were washed with phosphate-buffered saline (PBS), trypsinized, counted, and then lysed in 1 N NaOH at 100° C. for about 1 hour. The melanin content in each sample was calculated by comparison of absorbance at 400 nm of unknown samples with a standard curve obtained using synthetic melanin. IS103 enhances melanin synthesis in a dose dependent manner without significant toxicity. B16F10 and NHEM cells were treated with different concentrations of IS103 ranging from 0.1 to 1000 μg/ml and analysed melanin contents in cells. It was observed that IS103 was able to enhance pigmentation of B16F10 and NHEM cells in a dose-dependent manner (Table 18 and FIGS. 4 and 5). […] To assess the toxicity of the IS103 peptide, cell viability was analyzed by MTT assay.

Tyrosinase [1] = assay: Tyrosinase activity assay (L-DOPA) in B16F10 cells; format: cell-based; conditions: for increase in Tyrosinase activity when compared to control: B16F10 cells, positive control
Description: as §1, §2
(§3) Tyrosinase activity was determined using L-DOPA as a substrate. Briefly, B16F10 and NHEM cells were seeded in a 6-well plate (2×10^4 cells/well) and incubated for overnight. The cells were then treated with or without the test compounds for 46 hours and were washed twice with ice cold PBS and extracted by sonication in 100 μl of 0.1M Tris-HCl buffer (pH 7.2) containing 1% Nonidet P-40, 0.01% SDS, 100 μM phenyl methyl sulfonyl fluoride, and 1 μg/ml aprotinin and then centrifuged at 10,000 g for about 10 minutes at 4° C. The supernatants collected were used for enzyme assay and its protein content was estimated by method of Bradford using BSA as standard. Samples of cell extract supernatant were incubated in duplicate for 1 hour at 37° C. in 1 ml of 0.1M sodium phosphate buffer (pH 7.4) containing 0.1% L-DOPA. The absorbance was then monitored at 450 nm and compared with purified mushroom tyrosinase (Sigma). The standard curve was prepared limiting linearity within the range of experimental value.

Tyrosinase [2] = assay: Tyrosinase activity assay (L-DOPA) in NHEM cells; format: cell-based, Human; conditions: for increase in Tyrosinase activity when compared to control: NHEM cells, positive control
Description: as §1, §2, §3

[3] = TYROSINASE ACTIVITY table, B16F10 CELLS, 100 μM
[4] = TYROSINASE ACTIVITY table, NHEM CELLS, 100 μM

Compound | % increase in melanin content compared to control (B16F10 cells) | Fold change in melanin content (B16F10 cells) | % increase in melanin content compared to control (NHEM cells; 100 μM) | Fold change in melanin content (NHEM cells; 100 μM) | increase in Tyrosinase activity when compared to control (Tyrosinase [1]; 100 μM) | % increase in tyrosinase activity compared to control (Tyrosinase [1]; [3]) | Change in tyrosinase activity (Tyrosinase [1]; [3]) | increase in Tyrosinase activity when compared to control (Tyrosinase [2]; 100 μM) | % increase in tyrosinase activity compared to control (Tyrosinase [2]; [4]) | Tyrosinase activity (Tyrosinase [2]; [4]) | % increase in melanin content compared to control (NHEM cells; 100 nM) | increase in Tyrosinase activity when compared to control (Tyrosinase [1]; 100 nM) | % increase in tyrosinase activity compared to control (Tyrosinase [1]; TYROSINASE ACTIVITY table, B16F10 CELLS, 100 nM) | increase in Tyrosinase activity when compared to control (Tyrosinase [2]; 100 nM) | % increase in tyrosinase activity compared to control (Tyrosinase [2]; TYROSINASE ACTIVITY table, NHEM CELLS, 100 nM)
CC(C)Cn1c(=O)n(C)c(=O)c2[nH]cnc21 [IBMX, 3-isobutyl-1-methylxanthine, reference compound] | 180% | 2.8 ± 0.20 | 160% | 2.6 ± 0.20 | 59% | 59% | 74.0 ± 5.10 | 56% | 56% | 70.3 ± 4.20 | – | – | – | – | –
α-Melanocyte Stimulating Hormone [α-MSH, reference compound] | – | – | – | – | – | – | – | – | – | – | 190% | 57.33% | 57.33% | 56.33% | 56.33%
